Results on eight molecules are retold here after patent US20240279214A1, “ALPHA4 BETA7 INEGRIN ANTAGONISTS AND USES THEREOF” (XinThera, Inc., priority 2022, published 2024).

In general, EC50 refers to the concentration giving half of the maximal effect.

The assay addresses T1, a4b7 integrin interaction with MadCAM-1 (Homo sapiens, UniProt P13612+P26010).
T1 construct: capture of a4b7 integrin expressing cells, RPMI8866; endogenous in cells; host or cells: RPMI8866
T1 sequence (P13612 34-1032): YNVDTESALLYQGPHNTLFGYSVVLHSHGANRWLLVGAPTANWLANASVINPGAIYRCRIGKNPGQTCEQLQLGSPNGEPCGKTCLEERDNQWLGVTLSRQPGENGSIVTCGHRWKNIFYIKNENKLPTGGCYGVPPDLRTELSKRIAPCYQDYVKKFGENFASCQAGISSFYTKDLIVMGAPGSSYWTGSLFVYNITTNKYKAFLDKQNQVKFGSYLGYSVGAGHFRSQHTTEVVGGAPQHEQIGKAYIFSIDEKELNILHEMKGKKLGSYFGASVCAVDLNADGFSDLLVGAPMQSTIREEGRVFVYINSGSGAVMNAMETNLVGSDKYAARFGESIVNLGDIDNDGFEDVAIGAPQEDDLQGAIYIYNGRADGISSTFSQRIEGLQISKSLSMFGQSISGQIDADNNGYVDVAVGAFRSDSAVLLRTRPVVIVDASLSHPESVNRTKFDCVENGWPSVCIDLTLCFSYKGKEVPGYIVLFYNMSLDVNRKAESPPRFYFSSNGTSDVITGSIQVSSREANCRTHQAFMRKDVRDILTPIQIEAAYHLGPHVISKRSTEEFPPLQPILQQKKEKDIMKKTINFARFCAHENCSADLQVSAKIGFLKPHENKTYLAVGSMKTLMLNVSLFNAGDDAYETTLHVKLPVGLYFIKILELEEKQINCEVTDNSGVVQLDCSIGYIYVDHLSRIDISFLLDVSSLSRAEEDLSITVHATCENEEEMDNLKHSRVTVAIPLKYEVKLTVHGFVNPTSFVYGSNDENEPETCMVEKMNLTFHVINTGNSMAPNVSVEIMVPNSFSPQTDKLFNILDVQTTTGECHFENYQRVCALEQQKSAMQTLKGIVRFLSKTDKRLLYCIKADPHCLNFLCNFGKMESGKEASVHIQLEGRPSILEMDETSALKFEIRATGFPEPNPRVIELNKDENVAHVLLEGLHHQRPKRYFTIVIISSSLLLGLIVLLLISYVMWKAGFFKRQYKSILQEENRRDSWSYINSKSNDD
T1 sequence (P26010 20-798): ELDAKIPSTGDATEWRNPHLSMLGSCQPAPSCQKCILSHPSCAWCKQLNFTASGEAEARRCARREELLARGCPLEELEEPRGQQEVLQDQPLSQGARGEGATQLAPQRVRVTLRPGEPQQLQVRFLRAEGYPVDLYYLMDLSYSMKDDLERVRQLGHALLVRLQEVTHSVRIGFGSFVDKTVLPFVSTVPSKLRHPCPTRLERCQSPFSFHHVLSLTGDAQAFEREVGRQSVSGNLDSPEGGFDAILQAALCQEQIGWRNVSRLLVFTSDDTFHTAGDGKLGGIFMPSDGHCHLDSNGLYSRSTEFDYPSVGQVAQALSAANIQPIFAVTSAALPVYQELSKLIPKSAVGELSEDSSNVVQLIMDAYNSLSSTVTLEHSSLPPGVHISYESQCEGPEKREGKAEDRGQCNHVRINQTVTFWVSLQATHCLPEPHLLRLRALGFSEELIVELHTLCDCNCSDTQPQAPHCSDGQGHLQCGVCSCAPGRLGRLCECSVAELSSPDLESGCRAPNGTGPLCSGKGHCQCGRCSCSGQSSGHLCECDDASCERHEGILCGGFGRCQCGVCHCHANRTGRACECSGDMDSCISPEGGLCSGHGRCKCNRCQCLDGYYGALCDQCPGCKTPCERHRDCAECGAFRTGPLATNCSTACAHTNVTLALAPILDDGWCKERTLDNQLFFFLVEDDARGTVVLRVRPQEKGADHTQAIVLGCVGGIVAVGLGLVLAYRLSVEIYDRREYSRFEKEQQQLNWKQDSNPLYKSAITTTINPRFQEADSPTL
Put plainly: a4b7 Cell Capture Assay (RPMI8866 cells on MAdCAM-1 Fc coated plates). In kind it is cell-based. The following applies: 50% human serum, 1 mM MgCl2, 1 hour incubation, CellTiter-Glo luminescence, read-out: a4B7 cell capture assay RMPI8866-MadCAM EC50. How it is done: The potency of inhibitors in preventing a4b7 integrin interaction with MadCAM-1 was measured by monitoring the capture of a4b7 integrin expressing cells, RPMI8866, on recombinant human MAdCAM-1 Fc chimera protein-coated plates. The protein was a fusion between human MAdCAM-1 (Met1-Gln333, Accession #AAY82472) and human IgG1 (Pro100-Lys330)] (R&D Systems, Catalog #6056-MC). 96-well plates (Thermofisher, Catalog #136102) were coated with the recombinant protein by dispensing 100 μL (1.0 μg/mL) per well. After a quick spin to settle down the coating solution using a plate centrifuge, plates were incubated overnight at 4° C. in a moisture chamber. On Day 2, the plates were washed with PBS using a Bluecatbio Blue®Washer (GentleSpin wash, 3 cycles, pressure=1, volume 150 uL). Blocking solution (1.0% BSA in PBS, Sigma, Catalog #A7979) was then added at 200 uL/well, and the plates were quickly spun to settle down blocking buffer and incubated in cell culture incubator at 37° C. and 5% CO2 for 1 hour. The plates were then washed with 0.1% BSA in PBS using a Bluecatbio Blue®Washer (GentleSpin wash, 3 cycles, pressure=1, volume 150 uL). RPMI8866 cells suspended in assay medium (1 mM MgCl2 25 mM HEPES and 50% human serum, Sigma, Catalog #H4522) at a density of 1.0×10^6 cells/mL were added at 100 uL/well. Each compound evaluated was prepared as a DMSO stock solution. Test compounds were evaluated with a 9-point serial dilution curve (1000, 333.3, 111.1, 55.6, 27.8, 13.9, 6.9, 2.3, and 0.77 nM)) and were added to the plates using a Tecan D.30e Digita dispenser, the dispensed stock is 100 nL and the final DMSO concentration is 0.1%. Potent compounds were re-evaluated at a new 9-point serial dilution curve (100, 33.3, 11.1, 5.6, 2.8, 1.4, 0.69, 0.23, and 0.08 nM). Each titration curves were performed in triplicate on the same plate, and most of compounds were retested in different dates multiple times. The plates were shaken at 300 rpm on orbital plate shaker for 3 minutes to mix the cells and compounds, quickly spun to settle the cells and solution, and incubated in cell culture incubator at 37° C. and 5% CO2. After 1 hour incubation, the unbound cells were washed away with RPMI1640 medium supplemented with 1 mM MgCl2 and 1% BSA) (wash buffer) using a Bluecatbio Blue®Washer (MagbeadsSpin wash, 1 cycle, pressure 1, volume=150 uL). After wash buffer removal, A mixture of wash buffer/CellTiter-Glo® Reagent (Pormega, catalog #G7573) at 1:1 (V/V) was added at volume of 100 uL to each well. The plates were placed in a chamber at 25° C. and incubated for 30 minutes. Luminescence was recorded using a Envision plate reader 2105 according to CellTiter-Glo protocol.
The mean luminescence signals from negative control wells without MadCAM-1 coating and compound treatment (cells only) was defined as 100% binding inhibition, and the mean luminescence signals from positive control wells with MadCAM-1 coating but without compound treatment (MadCAM-1 and cells only) was defined as 0% binding inhibition. The luminescence signals from other compound treated wells were normalized in percentage scale accordingly. The normalized mean % inhibition data were plotted against logarithmic compound concentration in nanomolar and were fitted with 4-parameter logistic model to obtain IC50 for each compound.
As for `Cc1cccc2c1-c1cc(c(F)c(C(F)(F)F)c1)[C@H](CC(=O)O)NC(=O)[C@@H](n1cc(CCN(C)C)c(C(F)(F)F)cc1=O)c1cccc(c1)O2` (relative stereo) [Example 16, [(14R*,17S)-14-{5-[2-(dimethylamino)ethyl]-2-oxo-4-(trifluoromethyl)pyridin-1-yl}-19-fluoro-3-methyl-15-oxo-20-(trifluoromethyl)-8-oxa-16-azatetracyclo[16.3.1.1^{9,13}.0^{2,7}]tricosa-1(22),2(7),3,5,9,11,13(23),18,20-nonaen-17-yl]acetic acid], the concentration for a half-maximal effect (EC50) worked out at 14 nM.

Take `O=C(O)C[C@@H]1NC(=O)[C@@H](n2cc(CCN3CC(F)C3)c(C(F)(F)F)cc2=O)c2cccc(c2)Oc2cccc(Cl)c2-c2cc1c(F)c(C(F)(F)F)c2` (relative stereo) [Example 17, [(14R*,17S)-3-chloro-19-fluoro-14-{5-[2-(3-fluoroazetidin-1-yl)ethyl]-2-oxo-4-(trifluoromethyl)pyridin-1-yl}-15-oxo-20-(trifluoromethyl)-8-oxa-16-azatetracyclo[16.3.1.1^{9,13}.0^{2,7}]tricosa-1(22),2(7),3,5,9,11,13(23),18,20-nonaen-17-yl]acetic acid]: the EC50 amounted to 140 nM.

For the molecule `Cc1cc2cc(c1F)[C@H](CC(=O)O)NC(=O)[C@@H](n1cc(CCN3CC(F)C3)c(C(F)(F)F)cc1=O)c1cc(ccc1F)Oc1cccc(Cl)c1-2` (relative stereo) [Example 19, [(14R*,17S)-3-chloro-12,19-difluoro-14-{5-[2-(3-fluoroazetidin-1-yl)ethyl]-2-oxo-4-(trifluoromethyl)pyridin-1-yl}-20-methyl-15-oxo-8-oxa-16-azatetracyclo[16.3.1.1^{9,13}.0^{2,7}]tricosa-1(22),2(7),3,5,9,11,13(23),18,20-nonaen-17-yl]acetic acid], the 50% effective concentration (EC50) turned out to be 0.84 nM.

For the molecule `Cc1cc2cc(c1F)[C@H](CC(=O)O)NC(=O)[C@@H](n1cc(CCCN(C)C)c(C(F)(F)F)cc1=O)c1cc(ccc1F)Oc1cccc(C)c1-2` (relative stereo) [Example 20, [(14R*,17S)-14-{5-[3-(dimethylamino)propyl]-2-oxo-4-(trifluoromethyl)pyridin-1-yl}-12,19-difluoro-3,20-dimethyl-15-oxo-8-oxa-16-azatetracyclo[16.3.1.1^{9,13}.0^{2,7}]tricosa-1(22),2(7),3,5,9,11,13(23),18,20-nonaen-17-yl]acetic acid], the 50% effective concentration (EC50) was 0.08 nM.

On to `Cc1cc2cc(c1F)[C@H](CC(=O)O)NC(=O)[C@@H](n1cc(CCN3CC(F)C3)c(C(F)(F)F)cc1=O)c1cc(cc(C(F)(F)F)c1)Oc1cccc(C)c1-2` (relative stereo) [Example 22, [(14R*,17S)-19-fluoro-14-{5-[2-(3-fluoroazetidin-1-yl)ethyl]-2-oxo-4-(trifluoromethyl)pyridin-1-yl}-3,20-dimethyl-15-oxo-11-(trifluoromethyl)-8-oxa-16-azatetracyclo[16.3.1.1^{9,13}.0^{2,7}]tricosa-1(22),2(7),3,5,9,11,13(23),18,20-nonaen-17-yl]acetic acid], for which the EC50 worked out at 9.9 nM.

As to `Cc1cc2cc(c1F)[C@H](CC(=O)O)NC(=O)[C@@H](n1cc(CCN(C)C)c(C(F)(F)F)cc1=O)c1cccc(c1)Oc1cccc(C)c1-2` (relative stereo) [Example 23, [(14R*,17S)-14-{5-[2-(dimethylamino)ethyl]-2-oxo-4-(trifluoromethyl)pyridin-1-yl}-19-fluoro-3,20-dimethyl-15-oxo-8-oxa-16-azatetracyclo[16.3.1.1^{9,13}.0^{2,7}]tricosa-1(22),2(7),3,5,9,11,13(23),18,20-nonaen-17-yl]acetic acid], the EC50 turned out to be 2.3 nM.

Turning to `Cc1cccc2c1-c1cc(C3CC3)c(F)c(c1)[C@H](CC(=O)O)NC(=O)[C@@H](n1cc(CCN3CC(F)C3)c(C(F)(F)F)cc1=O)c1cc(ccc1F)O2` (relative stereo) [Example 24, [(14R*,17S)-20-cyclopropyl-12,19-difluoro-14-{5-[2-(3-fluoroazetidin-1-yl)ethyl]-2-oxo-4-(trifluoromethyl)pyridin-1-yl}-3-methyl-15-oxo-8-oxa-16-azatetracyclo[16.3.1.1^{9,13}.0^{2,7}]tricosa-1(22),2(7),3,5,9,11,13(23),18,20-nonaen-17-yl]acetic acid], the EC50 came to 1.9 nM.

Take `Cc1cccc2c1-c1cc(Cl)c(F)c(c1)[C@H](CC(=O)O)NC(=O)[C@@H](n1cc(CCN3CC(F)C3)c(C(F)(F)F)cc1=O)c1cc(ccc1F)O2` (relative stereo) [Example 25, [(14R*,17S)-20-chloro-12,19-difluoro-14-{5-[2-(3-fluoroazetidin-1-yl)ethyl]-2-oxo-4-(trifluoromethyl)pyridin-1-yl}-3-methyl-15-oxo-8-oxa-16-azatetracyclo[16.3.1.1^{9,13}.0^{2,7}]tricosa-1(22),2(7),3,5,9,11,13(23),18,20-nonaen-17-yl]acetic acid]: the 50% effective concentration (EC50) turned out to be 2 nM.
